{
  "source": "ChEMBL document CHEMBL3612012",
  "about": "“Identification of orally-bioavailable antagonists of the TRPV4 ion-channel” (Bioorg Med Chem Lett, 2015)",
  "key": {"[1]": {"target": "Transient receptor potential cation channel subfamily V member 4 (Homo sapiens, UniProt Q9HBA0)", "experiment": "Antagonist activity at human TRPV4 receptor expressed in HEK293 cells assessed as inhibition of EC80 of 4alpha-PDD-stimulated calcium flux after 10 mins", "format": "cell-based"}, "[2]": {"target": "5-hydroxytryptamine receptor 2A (Homo sapiens) (UniProt P28223)", "experiment": "Binding affinity to human 5-HT2A receptor assessed as inhibition of control specific binding at 10 uM"}, "[3]": {"target": "5-hydroxytryptamine receptor 1A (Homo sapiens) (UniProt P08908)", "experiment": "Binding affinity to human 5-HT1A receptor assessed as inhibition of control specific binding at 10 uM"}, "[4]": {"target": "5-hydroxytryptamine receptor 1B (Homo sapiens) (UniProt P28222)", "experiment": "Binding affinity to human 5-HT1B receptor assessed as inhibition of control specific binding at 10 uM"}, "[5]": {"experiment": "Bioavailability in Wistar rat at 32.50 mg/kg, ip", "format": "ADME, organism-based", "conditions": "in vivo, 32.5 mg/kg"}, "[6]": {"species_on_record": "Homo sapiens", "experiment": "Binding affinity to verapamil site of calcium channel L (unknown origin) assessed as inhibition of control specific binding at 10 uM"}, "[7]": {"target": "Cholecystokinin receptor type A (Homo sapiens) (UniProt P32238)", "experiment": "Binding affinity to human CCKA receptor assessed as inhibition of control specific binding at 10 uM"}, "[8]": {"target": "Kappa-type opioid receptor (Homo sapiens) (UniProt P41145)", "sequence (P41145 whole entry)": "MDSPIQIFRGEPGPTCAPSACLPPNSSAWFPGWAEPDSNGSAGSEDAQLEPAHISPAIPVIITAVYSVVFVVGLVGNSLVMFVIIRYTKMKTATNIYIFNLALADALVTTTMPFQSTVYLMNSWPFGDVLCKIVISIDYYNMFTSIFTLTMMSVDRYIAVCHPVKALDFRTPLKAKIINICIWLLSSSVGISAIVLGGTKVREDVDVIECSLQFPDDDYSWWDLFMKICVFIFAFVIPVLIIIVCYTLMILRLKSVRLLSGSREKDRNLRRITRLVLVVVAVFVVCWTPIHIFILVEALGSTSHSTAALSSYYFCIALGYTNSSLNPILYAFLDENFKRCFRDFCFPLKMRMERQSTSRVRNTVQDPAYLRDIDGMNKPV", "experiment": "Binding affinity to human kappa opioid receptor assessed as inhibition of control specific binding at 10 uM"}, "[9]": {"target": "Delta-type opioid receptor (Homo sapiens) (UniProt P41143)", "sequence (P41143 whole entry)": "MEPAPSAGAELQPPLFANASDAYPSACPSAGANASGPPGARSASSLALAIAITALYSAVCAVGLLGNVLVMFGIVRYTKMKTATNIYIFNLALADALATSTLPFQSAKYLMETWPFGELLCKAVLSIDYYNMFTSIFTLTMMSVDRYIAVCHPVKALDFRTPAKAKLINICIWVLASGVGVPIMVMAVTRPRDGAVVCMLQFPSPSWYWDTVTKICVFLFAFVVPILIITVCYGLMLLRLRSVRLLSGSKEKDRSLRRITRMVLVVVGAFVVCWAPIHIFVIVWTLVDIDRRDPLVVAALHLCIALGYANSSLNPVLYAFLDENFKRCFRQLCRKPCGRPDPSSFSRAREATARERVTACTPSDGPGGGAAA", "experiment": "Binding affinity to human detla2 opioid receptor assessed as inhibition of control specific binding at 10 uM"}, "[10]": {"target": "5-hydroxytryptamine receptor 7 (Homo sapiens) (UniProt P34969)", "sequence (P34969 whole entry)": "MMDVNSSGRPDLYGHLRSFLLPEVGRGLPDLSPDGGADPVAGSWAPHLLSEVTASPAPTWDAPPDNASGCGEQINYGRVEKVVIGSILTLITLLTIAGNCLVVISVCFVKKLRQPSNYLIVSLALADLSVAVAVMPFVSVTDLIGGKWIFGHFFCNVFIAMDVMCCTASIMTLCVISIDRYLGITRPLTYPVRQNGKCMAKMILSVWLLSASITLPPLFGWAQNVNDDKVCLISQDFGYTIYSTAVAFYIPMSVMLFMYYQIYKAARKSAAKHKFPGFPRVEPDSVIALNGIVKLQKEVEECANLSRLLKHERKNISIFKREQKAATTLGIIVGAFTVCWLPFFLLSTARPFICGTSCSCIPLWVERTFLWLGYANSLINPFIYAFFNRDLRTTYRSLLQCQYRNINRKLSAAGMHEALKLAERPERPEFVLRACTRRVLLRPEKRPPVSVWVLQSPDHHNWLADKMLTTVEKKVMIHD", "experiment": "Binding affinity to human 5-HT7 receptor assessed as inhibition of control specific binding at 10 uM"}, "[11]": {"experiment": "AUC (infinity) in Wistar rat at 1.40 mg/kg, iv", "format": "ADME, organism-based", "parameters": "dose 1.4 mg/kg, time infinity, route intravenous", "conditions": "in vivo, 1.4 mg/kg"}, "[12]": {"target": "Neuromedin-K receptor (Homo sapiens) (UniProt P29371)", "experiment": "Binding affinity to human NK3 receptor assessed as inhibition of control specific binding at 10 uM"}, "[13]": {"target": "Melanocortin receptor 4 (Homo sapiens) (UniProt P32245)", "experiment": "Binding affinity to human MC4 receptor assessed as inhibition of control specific binding at 10 uM"}, "[14]": {"target": "Beta-2 adrenergic receptor (Homo sapiens) (UniProt P07550)", "sequence (P07550 whole entry, looked up)": "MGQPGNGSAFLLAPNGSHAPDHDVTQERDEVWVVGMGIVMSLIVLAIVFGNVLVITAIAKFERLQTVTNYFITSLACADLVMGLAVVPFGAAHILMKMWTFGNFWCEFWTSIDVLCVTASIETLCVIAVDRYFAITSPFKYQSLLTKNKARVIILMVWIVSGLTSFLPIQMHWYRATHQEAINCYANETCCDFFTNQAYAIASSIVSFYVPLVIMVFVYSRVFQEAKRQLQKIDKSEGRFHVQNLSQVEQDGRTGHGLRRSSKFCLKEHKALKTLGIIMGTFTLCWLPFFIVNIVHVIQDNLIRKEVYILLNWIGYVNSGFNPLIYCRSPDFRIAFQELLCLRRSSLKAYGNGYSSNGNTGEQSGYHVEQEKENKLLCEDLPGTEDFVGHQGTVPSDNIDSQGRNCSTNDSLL", "experiment": "Binding affinity to human beta2 adrenergic receptor assessed as inhibition of control specific binding at 10 uM"}, "[15]": {"target": "Neuropeptide Y receptor type 1 (Homo sapiens) (UniProt P25929)", "experiment": "Binding affinity to human Y1 receptor assessed as inhibition of control specific binding at 10 uM"}, "[16]": {"target": "Adenosine receptor A2a (Homo sapiens) (UniProt P29274)", "experiment": "Binding affinity to human adenosine A2A receptor assessed as inhibition of control specific binding at 10 uM"}, "[17]": {"experiment": "Volume of distribution at steady state in Wistar rat at 1.40 mg/kg, iv", "format": "ADME, organism-based", "conditions": "in vivo, 1.4 mg/kg, read-out: Vdss"}, "[18]": {"target": "Sodium-dependent noradrenaline transporter (Homo sapiens) (UniProt P23975)", "experiment": "Binding affinity to human NE transporter assessed as inhibition of control specific binding at 10 uM"}, "[19]": {"target": "Adrenergic receptor alpha-1 (Homo sapiens) (UniProt P35348+P25100+P35368)", "experiment": "Binding affinity to non-selective alpha1 adrenergic receptor (unknown origin) assessed as inhibition of control specific binding at 10 uM", "format": "protein assay"}, "[20]": {"species_on_record": "Homo sapiens", "experiment": "Binding affinity to chloride channel (unknown origin) assessed as inhibition of control specific binding at 10 uM"}, "[21]": {"target": "D(2) dopamine receptor (Homo sapiens) (UniProt P14416)", "sequence (P14416 whole entry)": "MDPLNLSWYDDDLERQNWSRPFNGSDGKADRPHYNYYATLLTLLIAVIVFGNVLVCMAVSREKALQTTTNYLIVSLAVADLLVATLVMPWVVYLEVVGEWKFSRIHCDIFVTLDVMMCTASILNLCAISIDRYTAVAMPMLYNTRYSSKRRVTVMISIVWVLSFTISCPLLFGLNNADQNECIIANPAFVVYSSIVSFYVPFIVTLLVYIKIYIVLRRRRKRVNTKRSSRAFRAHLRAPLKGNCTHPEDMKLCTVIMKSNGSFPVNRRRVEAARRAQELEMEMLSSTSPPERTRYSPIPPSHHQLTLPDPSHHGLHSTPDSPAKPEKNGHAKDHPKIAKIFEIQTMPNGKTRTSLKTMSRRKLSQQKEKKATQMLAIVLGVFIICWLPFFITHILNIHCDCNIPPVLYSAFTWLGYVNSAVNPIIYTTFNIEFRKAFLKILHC", "experiment": "Binding affinity to human D2S receptor assessed as inhibition of control specific binding at 10 uM"}, "[22]": {"target": "Transient receptor potential cation channel subfamily M member 8 (Homo sapiens, UniProt Q7Z2W7)", "experiment": "Antagonist activity at human TRPM8 receptor expressed in HEK293 cells assessed as inhibition of menthol-stimulated calcium flux after 10 mins", "format": "cell-based"}, "[23]": {"target": "Beta-1 adrenergic receptor (Homo sapiens) (UniProt P08588)", "sequence (P08588 whole entry, looked up)": "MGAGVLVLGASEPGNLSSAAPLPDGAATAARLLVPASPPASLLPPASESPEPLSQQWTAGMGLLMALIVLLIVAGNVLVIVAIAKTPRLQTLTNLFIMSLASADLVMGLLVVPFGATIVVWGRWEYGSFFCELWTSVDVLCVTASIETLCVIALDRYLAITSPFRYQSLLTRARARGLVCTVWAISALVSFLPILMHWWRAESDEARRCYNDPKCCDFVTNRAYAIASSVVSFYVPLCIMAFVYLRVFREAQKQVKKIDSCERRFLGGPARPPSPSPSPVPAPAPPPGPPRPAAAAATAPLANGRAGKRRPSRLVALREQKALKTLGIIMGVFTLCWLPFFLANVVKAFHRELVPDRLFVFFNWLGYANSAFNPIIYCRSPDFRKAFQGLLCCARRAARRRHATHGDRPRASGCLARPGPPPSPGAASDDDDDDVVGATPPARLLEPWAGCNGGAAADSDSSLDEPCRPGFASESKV", "experiment": "Binding affinity to human beta1 adrenergic receptor assessed as inhibition of control specific binding at 10 uM"}, "[24]": {"target": "Sodium-dependent dopamine transporter (Homo sapiens) (UniProt Q01959)", "experiment": "Binding affinity to human DA transporter assessed as inhibition of control specific binding at 10 uM"}, "[25]": {"target": "Transient receptor potential cation channel subfamily V member 3 (Homo sapiens, UniProt Q8NET8)", "sequence (Q8NET8 whole entry)": "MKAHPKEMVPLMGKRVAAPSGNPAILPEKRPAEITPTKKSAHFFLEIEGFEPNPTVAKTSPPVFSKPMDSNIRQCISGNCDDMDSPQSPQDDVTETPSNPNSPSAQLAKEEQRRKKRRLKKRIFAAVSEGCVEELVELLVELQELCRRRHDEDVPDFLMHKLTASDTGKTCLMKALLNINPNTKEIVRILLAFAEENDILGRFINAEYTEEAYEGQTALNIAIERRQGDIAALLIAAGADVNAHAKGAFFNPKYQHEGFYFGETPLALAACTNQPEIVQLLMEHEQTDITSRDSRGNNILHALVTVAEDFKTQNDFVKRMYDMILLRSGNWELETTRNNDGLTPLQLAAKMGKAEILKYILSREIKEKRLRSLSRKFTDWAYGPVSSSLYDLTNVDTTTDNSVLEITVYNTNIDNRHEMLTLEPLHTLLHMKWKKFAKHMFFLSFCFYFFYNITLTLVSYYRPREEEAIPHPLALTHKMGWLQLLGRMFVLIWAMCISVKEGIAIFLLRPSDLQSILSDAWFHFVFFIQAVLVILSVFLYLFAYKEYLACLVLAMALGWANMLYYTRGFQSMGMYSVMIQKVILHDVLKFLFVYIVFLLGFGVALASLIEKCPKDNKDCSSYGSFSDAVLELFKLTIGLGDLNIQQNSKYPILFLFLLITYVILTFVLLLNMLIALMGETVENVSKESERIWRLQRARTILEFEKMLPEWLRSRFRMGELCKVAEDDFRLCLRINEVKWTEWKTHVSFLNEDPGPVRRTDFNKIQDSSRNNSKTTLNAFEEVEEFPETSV", "experiment": "Antagonist activity at human TRPV3 receptor expressed in HEK293 cells assessed as inhibition of capsaicin-stimulated calcium flux after 10 mins", "format": "cell-based"}, "[26]": {"experiment": "Solubility of the compound at pH 7.4", "format": "physicochemical", "conditions": "buffer"}, "[27]": {"target": "Mu-type opioid receptor (Homo sapiens) (UniProt P35372)", "experiment": "Binding affinity to human mu opioid receptor agonist site assessed as inhibition of control specific binding at 10 uM"}, "[28]": {"target": "potassium channel (voltage-gated potassium channel family) (Homo sapiens, UniProt O43525+O43526+O95259+P16389+P17658+P22001+P22459+P22460+P48547+P51787+P56696+Q03721+Q09470+Q12809+Q14003+Q14721+Q16322+Q6PIU1+Q8NCM2+Q8TAE7+Q8TDN1+Q8TDN2+Q92953+Q96KK3+Q96L42+Q96PR1+Q96RP8+Q9BQ31+Q9H252+Q9H3M0+Q9NR82+Q9NS40+Q9NSA2+Q9NZV8+Q9UIX4+Q9UJ96+Q9UK17+Q9ULD8+Q9ULS6+Q9UQ05)", "experiment": "Binding affinity to potassium channel (unknown origin) assessed as inhibition of control specific binding at 10 uM", "format": "protein assay"}, "[29]": {"target": "Cannabinoid receptor 1 (Homo sapiens) (UniProt P21554)", "experiment": "Binding affinity to human CB1 receptor assessed as inhibition of control specific binding at 10 uM"}, "[30]": {"species_on_record": "Homo sapiens", "experiment": "Binding affinity to central benzodiazepine receptor (unknown origin) assessed as inhibition of control specific binding at 10 uM"}, "[31]": {"target": "Transient receptor potential cation channel subfamily V member 4 (Rattus norvegicus, UniProt Q9ERZ8)", "experiment": "Antagonist activity at rat TRPV4 receptor expressed in HEK293 cells assessed as inhibition of 4alpha-PDD-stimulated calcium flux after 10 mins", "format": "cell-based"}, "[32]": {"target": "Muscarinic acetylcholine receptor M1 (Homo sapiens) (UniProt P11229)", "sequence (P11229 whole entry)": "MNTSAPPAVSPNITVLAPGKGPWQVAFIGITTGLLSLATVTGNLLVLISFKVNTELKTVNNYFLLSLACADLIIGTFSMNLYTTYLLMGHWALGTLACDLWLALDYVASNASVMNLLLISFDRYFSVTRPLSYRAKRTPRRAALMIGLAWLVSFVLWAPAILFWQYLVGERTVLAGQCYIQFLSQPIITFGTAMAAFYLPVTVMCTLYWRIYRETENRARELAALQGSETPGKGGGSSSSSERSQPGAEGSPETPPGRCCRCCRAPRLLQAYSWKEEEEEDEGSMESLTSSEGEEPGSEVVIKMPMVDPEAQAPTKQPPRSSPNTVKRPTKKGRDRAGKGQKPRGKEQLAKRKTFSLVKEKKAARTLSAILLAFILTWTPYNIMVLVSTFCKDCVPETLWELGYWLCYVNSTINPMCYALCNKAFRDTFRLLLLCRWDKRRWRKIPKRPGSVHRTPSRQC", "experiment": "Binding affinity to human M1 receptor assessed as inhibition of control specific binding at 10 uM"}, "[33]": {"target": "Sodium-dependent serotonin transporter (Homo sapiens) (UniProt P31645)", "sequence (P31645 whole entry, looked up)": "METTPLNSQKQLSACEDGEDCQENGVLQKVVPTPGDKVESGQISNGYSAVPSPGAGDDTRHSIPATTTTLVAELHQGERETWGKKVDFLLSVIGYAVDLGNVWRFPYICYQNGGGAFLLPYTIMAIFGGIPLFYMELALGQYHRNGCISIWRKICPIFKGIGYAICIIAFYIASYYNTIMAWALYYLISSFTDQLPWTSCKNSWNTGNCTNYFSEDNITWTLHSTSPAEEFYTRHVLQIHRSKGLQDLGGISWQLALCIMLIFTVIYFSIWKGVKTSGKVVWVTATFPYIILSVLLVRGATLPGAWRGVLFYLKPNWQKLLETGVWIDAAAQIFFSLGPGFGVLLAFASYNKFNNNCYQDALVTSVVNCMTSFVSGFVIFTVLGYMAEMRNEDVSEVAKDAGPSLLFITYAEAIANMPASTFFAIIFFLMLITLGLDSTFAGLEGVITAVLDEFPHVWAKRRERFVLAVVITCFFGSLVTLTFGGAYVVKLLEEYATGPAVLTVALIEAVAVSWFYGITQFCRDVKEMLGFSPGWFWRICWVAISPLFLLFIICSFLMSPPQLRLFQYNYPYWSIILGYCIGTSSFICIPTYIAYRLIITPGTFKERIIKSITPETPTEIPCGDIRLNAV", "experiment": "Binding affinity to human 5-HT transporter assessed as inhibition of control specific binding at 10 uM"}, "[34]": {"target": "Vasopressin V1a receptor (Homo sapiens) (UniProt P37288)", "sequence (P37288 whole entry, looked up)": "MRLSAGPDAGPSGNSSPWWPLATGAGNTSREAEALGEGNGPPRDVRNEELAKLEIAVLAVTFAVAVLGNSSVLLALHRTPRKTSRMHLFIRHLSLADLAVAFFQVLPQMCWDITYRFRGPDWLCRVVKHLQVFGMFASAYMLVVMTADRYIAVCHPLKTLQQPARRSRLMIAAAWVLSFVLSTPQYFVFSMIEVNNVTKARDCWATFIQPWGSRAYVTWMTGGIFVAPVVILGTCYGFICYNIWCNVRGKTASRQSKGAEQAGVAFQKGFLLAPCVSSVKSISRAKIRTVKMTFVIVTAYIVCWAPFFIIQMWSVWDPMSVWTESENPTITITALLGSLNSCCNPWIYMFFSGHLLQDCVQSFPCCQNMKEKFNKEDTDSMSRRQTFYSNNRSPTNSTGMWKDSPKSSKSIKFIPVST", "experiment": "Binding affinity to human V1a receptor assessed as inhibition of control specific binding at 10 uM"}},
  "data": [
    {"molecule": "CC(C)N1CCN(S(=O)(=O)c2ccc(NC(=O)c3ccc(C(F)(F)F)cc3[N+](=O)[O-])cc2)CC1", "values": [
      {"measurement": "IC50", "setting": "[1]", "result": 420, "unit": "nM"},
      {"measurement": "inhibition", "setting": "[2]", "result": 28, "unit": "%"},
      {"measurement": "inhibition", "setting": "[3]", "result": -4, "unit": "%"},
      {"measurement": "inhibition", "setting": "[4]", "result": -2, "unit": "%"},
      {"measurement": "bioavailability", "setting": "[5]", "result": 75, "unit": "%"},
      {"measurement": "inhibition", "setting": "[6]", "result": 7, "unit": "%"},
      {"measurement": "inhibition", "setting": "[7]", "result": 3, "unit": "%"},
      {"measurement": "inhibition", "setting": "[8]", "result": 3, "unit": "%"},
      {"measurement": "inhibition", "setting": "[9]", "result": 6, "unit": "%"},
      {"measurement": "inhibition", "setting": "[10]", "result": -5, "unit": "%"},
      {"measurement": "AUC(0-inf)", "setting": "[11]", "result": 1010, "unit": "ng·h/mL"},
      {"measurement": "inhibition", "setting": "[12]", "result": 2, "unit": "%"},
      {"measurement": "inhibition", "setting": "[13]", "result": -8, "unit": "%"},
      {"measurement": "inhibition", "setting": "[14]", "result": 1, "unit": "%"},
      {"measurement": "inhibition", "setting": "[15]", "result": -8, "unit": "%"},
      {"measurement": "inhibition", "setting": "[16]", "result": -7, "unit": "%"},
      {"measurement": "Vd", "setting": "[17]", "result": 1.44, "unit": "L/kg"},
      {"measurement": "inhibition", "setting": "[18]", "result": 4, "unit": "%"},
      {"measurement": "inhibition", "setting": "[19]", "result": 6, "unit": "%"},
      {"measurement": "inhibition", "setting": "[20]", "result": 24, "unit": "%"},
      {"measurement": "inhibition", "setting": "[21]", "result": 2, "unit": "%"},
      {"measurement": "IC50", "setting": "[22]", "result": 30000, "unit": "nM"},
      {"measurement": "inhibition", "setting": "[23]", "result": 4, "unit": "%"},
      {"measurement": "inhibition", "setting": "[24]", "result": 10, "unit": "%"},
      {"measurement": "IC50", "setting": "[25]", "result": "> 30000", "unit": "nM"},
      {"measurement": "solubility", "setting": "[26]", "result": 45.5, "unit": "µM"},
      {"measurement": "inhibition", "setting": "[27]", "result": 9, "unit": "%"},
      {"measurement": "inhibition at 10 µM", "setting": "[28]", "result": -25, "unit": "%"},
      {"measurement": "inhibition", "setting": "[29]", "result": 3, "unit": "%"},
      {"measurement": "inhibition", "setting": "[30]", "result": 9, "unit": "%"},
      {"measurement": "IC50", "setting": "[31]", "result": 120, "unit": "nM"},
      {"measurement": "inhibition", "setting": "[32]", "result": 76, "unit": "%"},
      {"measurement": "inhibition", "setting": "[33]", "result": 6, "unit": "%"},
      {"measurement": "inhibition", "setting": "[34]", "result": 1, "unit": "%"}
    ]}
  ]
}
